Data on 5 compounds can be found in patent publication US7345158B2, “Actin related cytoskeletal protein “LACS”” (Anges MG, Inc., priority 2002, dated 2008).

Experiment [1] concerns LACS expression in cultured myocardial cells. Description: LACS protein expression in cultured myocardial cells under hypertrophic agonist stimulation. Type of experiment: cell-based, rat. To be noted: for LACS protein expression on hypertrophic agonist stimulation: primary cultured neonatal rat myocardial cells. On the procedure:
Primary cultures of myocardial cells isolated from neonatal rats (one- to three-day old) using trypsin and collagenase were prepared. For the first 24 to 48 hours, the cells were cultured in a serum-containing medium, and then for another 24 hours in a serum-free medium.
Myocardial cells cultured by the same method in Example 4 were used. First, cells were stimulated with the representative hypertrophic agonists, AngII, phenylephrine, and Endothelin-1.
LACS expression which increases upon phenylephrine stimulation was suppressed by the simultaneous administration of 10 μM of Y27632 (ROCK inhibitor; Calbiochem). […] Rho is a low-molecular-weight GTP-binding protein (small G protein) involved in the contraction of smooth muscles, and regulation of cytokinesis, cell motility, and cytomorphology, via reorganization of actin filaments.

In experiment [2] the test system is LACS mRNA expression in cardiac tissues. Description: LACS mRNA expression in cardiac tissues of L-NAME-administered WKY rats (Northern blotting). In kind it is in vivo, rat. To be noted: male WKY rats, oral L-NAME 100 mg/L. On the procedure: RNAs were extracted from the hearts of a male WKY rat group that has been subjected to a one-week oral administration of L-NAME (100 mg/L), and from the hearts of a control group without L-NAME administration. […] As a result, a novel LACS (L-NAME related actin cytoskeletal protein) gene was successfully isolated. […] Furthermore, mRNA expression in tissues other than the heart was also analyzed by Northern blotting. […] Particularly with the heart, the expression of LACS mRNA was confirmed in the myocardial cells.

Experiment [3] relates to LACS mRNA expression in the heart. Description: LACS mRNA expression in the hearts of AngII infusion rats. In kind it is in vivo, rat. The conditions noted are these: osmotic pump 0.7 mg/kg/day. On the procedure:
Cardiac tissues derived from AngII infusion rats (osmotic pump: 0.7 mg/kg/day), and SHRs of 4 weeks and 24 weeks, were used. ATIR antagonist (ARB) and hydrazine (Hyd) were used as antihypertensive agents. Each of the antihypertensive agents was used at an amount sufficient for lowering the blood pressure (10 mg/kg/day for ARB; 12 mg/kg/day for Hyd).

Positions of bridges follow the written chain, without caps; N, C: chain ends. No end group written: not given here.

With `CNC[C@H](O)c1cccc(O)c1` [phenylephrine], the “LACS protein expression on hypertrophic agonist stimulation” value (“LACS protein expression” below) in experiment [1] is “found to increase”. Take `COC(=O)[C@@H](N)CCCN=C(N)N[N+](=O)[O-].Cl` [L-NAME, N^G-Nitro-L-arginine methyl ester, hydrochloride]: the “LACS mRNA expression level in cardiac tissues after L-NAME administration” value in experiment [2] is “reaches its peak one to three days after L-NAME administration”. Take “angiotensin II (DRVYIHPF; Angiotensin-2; UniProt P01019 25-32, looked up) [AngII, representative hypertrophic agonist]”: in experiment [3], the “LACS expression in the heart after AngII administration” value is reported as “increased LACS expression after the third day”. In addition, in experiment [1], the “LACS protein expression” value is reported as “found to increase”. Regarding `C[C@@H](N)[C@H]1CC[C@H](C(=O)Nc2ccncc2)CC1` [Y27632], the “Effect on the LACS expression increased by phenylephrine stimulation” value in experiment [1] (cultured myocardial cells, simultaneous administration of 10 μM) is given as “suppressed”. Consider “Endothelin-1 (CSCSSLMDKECVYFCHLDIIW; disulfide 1-15, 3-11; ends not checked; UniProt P05305 53-73, looked up) [representative hypertrophic agonist]”, for which the “LACS protein expression” value in experiment [1] was “found to increase”.
